Results: patent publication US7812039B2, “Drugs for chronic pains” (Nicox S.A., priority 2001, dated 2010)

Columns and labels:
Washed human platelets = test: NO generation from NO-donors with platelets, chemiluminescence; assay type: cell-based; details: incubation of 100 μM, 5 minutes
Description: (§1) The test relates to the nitric oxide generation from the NO-donors, for example nitroglycerin, niocorandil, nitroprussiate, etc., in the presence of endothelial cells (method a) or platelets (method b). • a) Endothelial Cells • Human cells of the umbilical vein, cultured on plates, having a 10^3 density cells/well were incubated for 5 minutes with scalar concentrations of NO-donor (1-100 μg/ml). The incubation medium (physiologic solution, for example Tyrode) was then analyzed to determine the capability to generate NO of the compound under test, by means of: • 1) nitric oxide detection by chemiluminescence; • 2) cGMP determination (cyclic GMP n° 2715 of the above mentioned Merck). • For the analysis by chemiluminescence, an amount equal to 100 μl was injected in the reaction chamber of a chemiluminescence analyzer containing glacial acetic acid and potassium iodide. The nitrites/nitrates present in the medium, under these conditions are converted into NO which is then detected after reaction with ozone, which produces light. In the equipments which measure the chemiluminescence, the luminescence produced is directly proportional to the generated NO levels and can be measured by a suitable photomultiplying unit of a chemiluminescence analyzer. The photomultiplier converts the incident light in electric voltage, which is quantitatively recorded. […]

[1] = system: Human cells of the umbilical vein; test: NO generation from NO-donors with endothelial cells, chemiluminescence; assay type: cell-based; details: incubation of 100 μM, 5 minutes
Description: as §1

With `O=C(NCCO[N+](=O)[O-])c1cccnc1` [nicorandil] the “amount of NO generated” value (Washed human platelets) was 35 µM and the “amount of NO generated” value [1] was “about 10 μM”.
